From US20240317791A1 (priority 2021, published 2024)
In brackets after ≈: the same amount, converted by molar mass. Where two headings read alike, the source gives them in different places. Numbered stars: 1 amine (or outer) side, 2 acyl side, 3 side chain; on linkers, the order of the positions; unused ones are H or OH. Bridge positions count the residues as written; N and C are the ends. Square brackets hold non-standard residues; d marks the D form. Peptide text beside a SMILES is read from it. * marks the point of attachment. hTyr(3S-OH,4S-OH,3'-OSO3H) = N[C@H](C(=O)O)[C@H](O)[C@@H](O)c1ccc(O)c(OS(=O)(=O)O)c1; Orn(4R-OH,5R-OH) = O=C([C@H](C[C@@H](O)[C@@H](O)N[*:3])N[*:1])[*:2]; Pro(3S-OH,4S-Me) = C[C@H]1CN[C@H](C(=O)O)[C@H]1O; X1 = CCCCCOc1ccc(-c2cc(-c3ccc(C(=O)*)cc3)no2)cc1; Gln(3R-OH) = NC(=O)C[C@@H](O)[C@H](N)C(=O)O; Hyp = O=C(O)[C@@H]1C[C@@H](O)CN1

Tests used:
Assay type in all cases: cell-based
Candida auris = test: MIC determination against clinical isolates of Candida auris (CLSI M27, 4th edition); settings: Candidozyma auris
From the text: (§1) MIC: Minimum Inhibitory Concentration (MIC) is defined as the lowest concentration of an antimicrobial ingredient that is bacteriostatic.
(§2) Testing has been performed in triplicates for each isolate.

Rhizopus oryzae = test: MIC determination against clinical isolates of the order Mucorales (CLSI M27, 4th edition); settings: Rhizopus arrhizus, strain 2086, clinical strain
From the text: as §1, §2

Rhizopus microsporus = test: as above; settings: strain 3435, clinical strain
From the text: as §1, §2

Mucor circinelloides = test: MIC determination against ATCC and clinical isolates of the order Mucorales (CLSI M27, 4th edition)
From the text: as §1, §2

CCCCCOc1ccc(-c2cc(-c3ccc(C(=O)N[C@H]4C[C@@H](O)[C@@H](O)NC(=O)[C@@H]5[C@@H](O)[C@@H](C)CN5C(=O)[C@H]([C@H](O)CC(N)=O)NC(=O)[C@H]([C@H](O)[C@@H](O)c5ccc(O)c(OS(=O)(=O)O)c5)NC(=O)[C@@H]5C[C@@H](O)CN5C(=O)[C@H]([C@@H](C)O)NC4=O)cc3)no2)cc1 [Micafungin] (X1-[Orn(4R-OH,5R-OH)]T[Hyp][hTyr(3S-OH,4S-OH,3'-OSO3H)][Gln(3R-OH)][Pro(3S-OH,4S-Me)]; lactam 1-C)
MIC (Candida auris; read-out: MIC values, strain I.2 (No 2), clade I/India): 0.125 mg/L (≈ 0.0984 µM)
MIC (Candida auris; read-out: MIC values, strain I.3 (No 3), clade I/India): > 1020 mg/L
MIC (Candida auris; read-out: MIC values, strain I.4 (No 4), clade I/India): 0.125 mg/L (≈ 0.0984 µM)
MIC (Candida auris; read-out: MIC values, strain II.1 (No 5), clade II/Japan): 0.125 mg/L (≈ 0.0984 µM)
MIC (Candida auris; read-out: MIC values, strain II.2 (No 1), clade II/India): 0.125 mg/L (≈ 0.0984 µM)
MIC (Candida auris; read-out: MIC values, strain III.7 (No 12), clade III/Switzerland): 0.25 mg/L (≈ 0.197 µM)
MIC (Candida auris; read-out: MIC values, strain III.8 (No 13), clade III/Israel): 0.25 mg/L (≈ 0.197 µM)
MIC (Candida auris; read-out: MIC values, strain III.9 (No 14), clade III/Israel): 0.25 mg/L (≈ 0.197 µM)
MIC (Candida auris; read-out: MIC values, strain IV.1 (No 15), clade IV/Colombia): 0.125 mg/L (≈ 0.0984 µM)
MIC (Candida auris; read-out: MIC values, strain IV.10 (No 7), clade IV/Israel): 0.25 mg/L (≈ 0.197 µM)
MIC (Candida auris; read-out: MIC values, strain IV.11 (No 8), clade IV/Israel): 0.25 mg/L (≈ 0.197 µM)
MIC (Candida auris; read-out: MIC values, strain IV.12 (No 9), clade IV/Israel): 0.25 mg/L (≈ 0.197 µM)
MIC (Candida auris; read-out: MIC values, strain IV.13 (No 10), clade IV/Israel): 0.25 mg/L (≈ 0.197 µM)
MIC (Candida auris; read-out: MIC values, strain IV.14 (No 11), clade IV/Israel): 0.5 mg/L (≈ 0.394 µM)
MIC (Candida auris; read-out: MIC values, strain IV.2 (No 16), clade IV/Colombia): 0.125 mg/L (≈ 0.0984 µM)
MIC (Candida auris; read-out: MIC values, strain IV.3 (No 17), clade IV/Colombia): 0.125 mg/L (≈ 0.0984 µM)
MIC (Candida auris; read-out: MIC values, strain IV.4 (No 18), clade IV/Colombia): 0.125 mg/L (≈ 0.0984 µM)
MIC (Candida auris; read-out: MIC values, strain IV.5 (No 19), clade IV/Colombia): 0.125 mg/L (≈ 0.0984 µM)
MIC (Candida auris; read-out: MIC values, strain IV.6 (No 20), clade IV/Colombia): 0.125 mg/L (≈ 0.0984 µM)
MIC (Candida auris; read-out: MIC values, strain IV.7 (No 21), clade IV/Colombia): 0.25 mg/L (≈ 0.197 µM)
MIC (Candida auris; read-out: MIC values, strain IV.8 (No 22), clade IV/Colombia): 0.25 mg/L (≈ 0.197 µM)
MIC (Candida auris; read-out: MIC values, strain IV.9 (No 6), clade IV/Israel): 0.25 mg/L (≈ 0.197 µM)

CC[C@@H]([C@H](C)O)n1ncn(-c2ccc(N3CCN(c4ccc(OC[C@@H]5CO[C@@](Cn6cncn6)(c6ccc(F)cc6F)C5)cc4)CC3)cc2)c1=O [Posaconazole]
MIC (Rhizopus oryzae): 0.25 mg/L (≈ 0.357 µM)
MIC (Rhizopus microsporus): 0.5 mg/L (≈ 0.713 µM)
MIC (Mucor circinelloides; ATCC24905, strain ATCC 24905, ATCC strain): 1 mg/L (≈ 1.43 µM)
MIC (Mucor circinelloides; strain 2109, clinical strain): 0.5 mg/L (≈ 0.713 µM)
MIC (Mucor circinelloides; strain 2707, clinical strain): 0.5 mg/L (≈ 0.713 µM)
MIC (Mucor circinelloides; strain 4280, clinical strain): 1 mg/L (≈ 1.43 µM)

C[C@@H](c1ncncc1F)[C@](O)(Cn1cncn1)c1ccc(F)cc1F [Voriconazole]
MIC (Candida auris; strain I.2 (No 2), clade I/India, read-out: MIC values): 1 mg/L (≈ 2.86 µM)
MIC (Candida auris; strain I.3 (No 3), clade I/India, read-out: MIC values): 2 mg/L (≈ 5.73 µM)
MIC (Candida auris; strain I.4 (No 4), clade I/India, read-out: MIC values): 1 mg/L (≈ 2.86 µM)
MIC (Candida auris; strain II.1 (No 5), clade II/Japan, read-out: MIC values): 0.0625 mg/L (≈ 0.179 µM)
MIC (Candida auris; strain II.2 (No 1), clade II/India, read-out: MIC values): 1 mg/L (≈ 2.86 µM)
MIC (Candida auris; strain III.7 (No 12), clade III/Switzerland, read-out: MIC values): 2 mg/L (≈ 5.73 µM)
MIC (Candida auris; strain III.8 (No 13), clade III/Israel, read-out: MIC values): 2 mg/L (≈ 5.73 µM)
MIC (Candida auris; strain III.9 (No 14), clade III/Israel, read-out: MIC values): 2 mg/L (≈ 5.73 µM)
MIC (Candida auris; strain IV.1 (No 15), clade IV/Colombia, read-out: MIC values): 0.0625 mg/L (≈ 0.179 µM)
MIC (Candida auris; strain IV.10 (No 7), clade IV/Israel, read-out: MIC values): 0.5 mg/L (≈ 1.43 µM)
MIC (Candida auris; strain IV.11 (No 8), clade IV/Israel, read-out: MIC values): 0.5 mg/L (≈ 1.43 µM)
MIC (Candida auris; strain IV.12 (No 9), clade IV/Israel, read-out: MIC values): 1 mg/L (≈ 2.86 µM)
MIC (Candida auris; strain IV.13 (No 10), clade IV/Israel, read-out: MIC values): 0.5 mg/L (≈ 1.43 µM)
MIC (Candida auris; strain IV.14 (No 11), clade IV/Israel, read-out: MIC values): 1 mg/L (≈ 2.86 µM)
MIC (Candida auris; strain IV.2 (No 16), clade IV/Colombia, read-out: MIC values): 1 mg/L (≈ 2.86 µM)
MIC (Candida auris; strain IV.3 (No 17), clade IV/Colombia, read-out: MIC values): 1 mg/L (≈ 2.86 µM)
MIC (Candida auris; strain IV.4 (No 18), clade IV/Colombia, read-out: MIC values): 0.5 mg/L (≈ 1.43 µM)
MIC (Candida auris; strain IV.5 (No 19), clade IV/Colombia, read-out: MIC values): 0.5 mg/L (≈ 1.43 µM)
MIC (Candida auris; strain IV.6 (No 20), clade IV/Colombia, read-out: MIC values): 0.5 mg/L (≈ 1.43 µM)
MIC (Candida auris; strain IV.7 (No 21), clade IV/Colombia, read-out: MIC values): 8 mg/L (≈ 22.9 µM)
MIC (Candida auris; strain IV.8 (No 22), clade IV/Colombia, read-out: MIC values): 8 mg/L (≈ 22.9 µM)
MIC (Candida auris; strain IV.9 (No 6), clade IV/Israel, read-out: MIC values): 1 mg/L (≈ 2.86 µM)
